Measurements published in ChEMBL document CHEMBL4715842, “Sulfonamide/sulfamate switch with a series of piperazinylureido derivatives: Synthesis, kinetic and in silico evaluation as carbonic anhydrase isoforms I, II, IV, and IX inhibitors” (Eur J Med Chem, 2020).

How the values were obtained:
[1] = molecular target: Carbonic anhydrase 2 (Homo sapiens, UniProt P00918); assay: Inhibition of recombinant human carbonic anhydrase 2 incubated for 15 mins prior to testing measured for 10 to 100 secs by phenol red-based stopped-flow CO2 hydration assay
[2] = molecular target: Carbonic anhydrase 4 (Homo sapiens, UniProt P22748); assay: Inhibition of recombinant human carbonic anhydrase 4 incubated for 15 mins prior to testing measured for 10 to 100 secs by phenol red-based stopped-flow CO2 hydration assay
[3] = molecular target: Carbonic anhydrase 1 (Homo sapiens, UniProt P00915); assay: Inhibition of recombinant human carbonic anhydrase 1 incubated for 15 mins prior to testing measured for 10 to 100 secs by phenol red-based stopped-flow CO2 hydration assay
[4] = molecular target: Carbonic anhydrase 9 (Homo sapiens, UniProt Q16790); assay: Inhibition of recombinant human carbonic anhydrase 9 incubated for 15 mins prior to testing measured for 10 to 100 secs by phenol red-based stopped-flow CO2 hydration assay
[5] = organism: Homo sapiens; assay: Selectivity ratio of Ki for inhibition of recombinant human carbonic anhydrase 2 to Ki for Ki for inhibition of recombinant human carbonic anhydrase 9

Sequence of Carbonic anhydrase 4 (P22748 whole entry): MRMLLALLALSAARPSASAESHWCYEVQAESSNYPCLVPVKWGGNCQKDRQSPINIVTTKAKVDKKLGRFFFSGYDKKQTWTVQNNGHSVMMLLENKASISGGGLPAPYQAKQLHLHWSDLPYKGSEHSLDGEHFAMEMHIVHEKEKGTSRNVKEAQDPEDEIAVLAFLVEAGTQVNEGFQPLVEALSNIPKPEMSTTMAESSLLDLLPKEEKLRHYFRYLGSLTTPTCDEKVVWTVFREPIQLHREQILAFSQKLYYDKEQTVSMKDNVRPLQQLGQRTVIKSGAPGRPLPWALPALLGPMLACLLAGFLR
Sequence of Carbonic anhydrase 1 (P00915 whole entry): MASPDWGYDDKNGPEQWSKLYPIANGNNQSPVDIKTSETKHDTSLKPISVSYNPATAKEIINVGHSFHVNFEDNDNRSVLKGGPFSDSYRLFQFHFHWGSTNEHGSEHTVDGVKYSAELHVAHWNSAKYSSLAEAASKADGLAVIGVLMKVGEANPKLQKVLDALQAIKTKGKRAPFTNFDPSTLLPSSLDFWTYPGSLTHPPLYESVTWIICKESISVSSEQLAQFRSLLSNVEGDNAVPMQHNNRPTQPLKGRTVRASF

Row | Compound | Ki [1] | Ki [2] | Ki [3] | Ki [4] | Ratio Ki [5]
1 | COc1cc(-c2ccnc(N3CCN(C(=O)Nc4ccc(OS(N)(=O)=O)cc4)CC3)n2)cc(OC)c1OC | 6.8 nM | 280 nM | 5280 nM | 24200 nM | –
2 | NS(=O)(=O)Oc1ccc(NC(=O)N2CCN(c3nccc(-c4cccc(C(F)(F)F)c4)n3)CC2)cc1 | 58.7 nM | 458 nM | 3470 nM | 27100 nM | –
3 | NS(=O)(=O)Oc1ccc(NC(=O)N2CCN(c3nccc(-c4ccccc4)n3)CC2)cc1 | 706 nM | 4100 nM | 2370 nM | 156000 nM | –
4 | CCCCCCCCN1CCN(C(=O)Nc2ccc(OS(N)(=O)=O)cc2)CC1 | 15.9 nM | 4800 nM | 752 nM | 31400 nM | –
5 | CCCCCCCCCCN1CCN(C(=O)Nc2ccc(OS(N)(=O)=O)cc2)CC1 | 21 nM | 4190 nM | 680 nM | 32200 nM | –
6 | COc1ccc(N2CCN(C(=O)Nc3ccc(OS(N)(=O)=O)cc3)CC2)cc1 | – | 1630 nM | – | – | –
7 | NS(=O)(=O)Oc1ccc(NC(=O)N2CCN(c3nccc(-c4cccc(Br)c4)n3)CC2)cc1 | 124 nM | 831 nM | 7770 nM | 30500 nM | –
8 | NS(=O)(=O)Oc1ccc(NC(=O)N2CCN(Cc3cc4ccccc4o3)CC2)cc1 | 36.2 nM | – | 760 nM | 32700 nM | –
9 | COc1ccc(-c2ccnc(N3CCN(C(=O)Nc4ccc(OS(N)(=O)=O)cc4)CC3)n2)cc1 | 29.1 nM | 384 nM | 3930 nM | 31800 nM | –
10 | Cc1cccc(-c2ccnc(N3CCN(C(=O)Nc4ccc(OS(N)(=O)=O)cc4)CC3)n2)c1 | 207 nM | 1320 nM | 4070 nM | 93300 nM | –

The next lines start with the values.

Row | Ki [1] | Ki [2] | Ki [3] | Ki [4] | Ratio Ki [5] | Compound
11 | – | 994 nM | – | – | – | COc1cccc(N2CCN(C(=O)Nc3ccc(OS(N)(=O)=O)cc3)CC2)c1
12 | – | 2590 nM | – | – | – | NS(=O)(=O)Oc1ccc(NC(=O)N2CCN(c3ccc(Cl)cc3)CC2)cc1
13 | – | – | – | – | 16 | Cc1cccc(N2CCN(C(=O)Nc3ccc(OS(N)(=O)=O)cc3)CC2)c1
14 | – | – | – | – | 7 | NS(=O)(=O)Oc1ccc(NC(=O)N2CCN(c3ccccc3)CC2)cc1
15 | – | 1090 nM | – | – | – | Cc1cccc(N2CCN(C(=O)Nc3ccc(OS(N)(=O)=O)cc3)CC2)c1C
16 | 56.9 nM | 759 nM | 692 nM | 29700 nM | – | Cc1ccccc1N1CCN(C(=O)Nc2ccc(OS(N)(=O)=O)cc2)CC1
17 | 45.4 nM | 1640 nM | 919 nM | – | – | NS(=O)(=O)Oc1ccc(NC(=O)N2CCN(c3ccc(Cl)c(Cl)c3)CC2)cc1
